Values joined by “and” are separate entries in the source; they are usually repeats but may differ in a detail not shown here. Equal entries are not always repeated. Where two headings read alike, the source gives them in different places.
Key:
[1] = target: SARS-CoV-2 NSP3 macrodomain (Mac1), P43 crystal form (Severe acute respiratory syndrome coronavirus 2, UniProt P0DTD1); type: binding; details: for 1-BDC: PanDDA background density correction; for X-ray crystal structure: X-ray crystal structure determined (TRUE); for Total number of conformations: ligand conformations modeled in Mac1 crystal structure; for Binding site: site of ligand in X-ray crystal structure; for X-ray crystallography: Binding site: site where the ligand is bound in the X-ray crystal structure
[2] = target: SARS-CoV-2 NSP3 macrodomain (Mac1) (Severe acute respiratory syndrome coronavirus 2, UniProt P0DTD1); experiment: biochemical; type: binding; details: for SARS CoV-2 macrodomain HTRF assay: Hillslope: dose-response fit
[3] = crystal soak 10 mM, P43 crystals
[4] = occupancy estimate from PanDDA 1-BDC
[5] = SARS CoV-2 macrodomain HTRF assay, dose-response
[6] = Single dose, concentration 200 μM, read-out: Average % competition
[7] = preliminary screen, compound at 200 μM, mean of 3-4 technical replicates, read-out: % competition in HTRF assay
[8] = crystal soak, soak concentration 10 mM
[9] = crystal soak, soak concentration 10 mM, TRUE = ligand hit
[10] = Single dose, concentration 200 μM, read-out: SARS CoV-2 macrodomain HTRF assay: Average % competition
[11] = occupancy estimate from PanDDA BDC
[12] = crystal soak concentration 10 mM, event 1
[13] = crystal soak concentration 10 mM, P43 crystals
[14] = crystal soak concentration 10 mM

SMILES | 1-BDC [1] | X-ray crystal structure [1] | Total number of conformations [1] | 2*(1-BDC) (%) [1, 4] [%] | Binding site [1] | Hill slope ([2]; HTRF dose-response fit, Mac1) | Hill slope [2, 5] | inhibition at 200 µM [2, 6] [%] | inhibition at 200 µM [2, 7] [%] | Pandda run, overall: Modeled [1, 8] | Pandda run, overall: Hit [1, 9] | X-ray crystallography: Binding site [1] | PanDDA run, DMSO background map: 1-BDC ([1]; soak concentration 10 mM) | PanDDA run, DMSO background map: Hit ([1]; soak concentration 10 mM) | inhibition at 200 µM [2, 10] [%] | SARS CoV-2 macrodomain HTRF assay: Hillslope [2] | Occupancy difference (refined_occupancy - 2*(1-BDC)) [1] | Refined ligand occupancy (%) [1] [%] | 2*(1-BDC) (%) [1, 11] [%] | other results
O=C(O)C(F)(F)F.OCC1(Nc2ncnc3[nH]ccc23)CCCC1 [AVI-3692] | 0.22 | TRUE | 1 | 44 | Adenosine | 1.3 | 1.3 | 85 | 85 | – | – | – | – | – | – | – | – | – | – | Pandda run, overall: Hit [1, 3]: TRUE; Pandda run, overall: Modeled [1, 3]: TRUE; PanDDA run, DMSO background map: 1-BDC ([1]; crystal soak 10 mM): 0.22; PanDDA run, DMSO background map: Hit ([1]; crystal soak 10 mM): TRUE
CCC(CC)(CO)Nc1ncnc2[nH]ccc12 [AVI-3695] | 0.12 | TRUE | 2 | 24 | Adenosine | 1.3 | 1.3 | 89 | 89 | – | – | – | – | – | – | – | – | – | – | Pandda run, overall: Hit [1, 3]: TRUE; Pandda run, overall: Modeled [1, 3]: TRUE; PanDDA run, DMSO background map: 1-BDC ([1]; crystal soak 10 mM): 0.12; PanDDA run, DMSO background map: Hit ([1]; crystal soak 10 mM): TRUE
CCC(C)(CO)Nc1ncnc2[nH]ccc12 (centres unmarked) [AVI-3697] | 0.16 | TRUE | 1 | 32 | Adenosine | 1.2 | 1.2 | 91 | 91 | – | – | – | – | – | – | – | – | – | – | Pandda run, overall: Hit [1, 3]: TRUE; Pandda run, overall: Modeled [1, 3]: TRUE; PanDDA run, DMSO background map: 1-BDC ([1]; crystal soak 10 mM): 0.16; PanDDA run, DMSO background map: Hit ([1]; crystal soak 10 mM): TRUE
CC1(C)C[C@@H](CO)N(c2ncnc3[nH]ccc23)C1.O=C(O)C(F)(F)F [AVI-3704] | 0.33 | – | 1 | 66 | – | 1.1 | – | – | 90 | TRUE | TRUE | Adenosine | 0.33 | TRUE | 90 | 1.1 | – | – | – | –
OCC1CC2(CCCC2)CN1c1ncnc2[nH]ccc12 (centres unmarked) [AVI-3708] | 0.32 | – | 1 | 64 | – | 1.1 | – | – | 90 | TRUE | TRUE | Adenosine | 0.32 | TRUE | 90 | 1.1 | – | – | – | –
OCC1C2CCC(C2)N1c1ncnc2[nH]ccc12 (centres unmarked) [AVI-3713] | 0.29 | – | 1 | 58 | – | 1.1 | – | – | 92 | TRUE | TRUE | Adenosine | 0.29 | TRUE | 92 | 1.1 | – | – | – | –
OC[C@@H]1C[C@@H]2CCC[C@@H]2N1c1ncnc2[nH]ccc12 [AVI-3720] | 0.29 | – | 1 | 58 | – | 1.2 | – | – | 92 | TRUE | TRUE | Adenosine | 0.29 | TRUE | 92 | 1.2 | – | – | – | Phe132 loop open state ([1]; TRUE = open state of Phe132 loop modeled): TRUE
O=C(O)C(F)(F)F.OC1([C@H]2CCCN2c2ncnc3[nH]ccc23)Cc2ccccc2C1 [AVI-3731] | 0.2 | – | 1 | 40 | – | 1.1 | – | – | 100 | TRUE | TRUE | Adenosine | 0.2 | TRUE | 100 | 1.1 | – | – | – | –
OCCC(CO)Nc1ncnc2[nH]ccc12 (centres unmarked) [AVI-3734] | 0.25 | TRUE | 1 | 50 | Adenosine | 1.2 | 1.2 | 86 | 86 | TRUE | TRUE | – | 0.25 | TRUE | – | – | – | – | – | –
CC(O)C1CCCN1c1ncnc2[nH]ccc12 (centres unmarked) [AVI-4062] | 0.26 | – | 1 | – | – | 1.1 | – | – | – | – | – | Adenosine | – | – | – | 1.1 | 18 | 70 | 52 | Hit (PanDDA run, overall) [1, 3]: TRUE; Hit (PanDDA run, DMSO background map) ([1]; crystal soak 10 mM): TRUE; 1-BDC (PanDDA run, DMSO background map) ([1]; crystal soak 10 mM, event 1): 0.26 and 0.29
O=C(O)C(F)(F)F.OC[C@H](Cc1ccc(O)cc1)Nc1ncnc2[nH]ccc12 [AVI-4066] | 0.2 | TRUE | 1 | – | Adenosine | 1.1 | 1.1 | – | – | – | – | – | – | – | – | – | 10 | 50 | 40 | Hit (PanDDA run, overall) [1, 3]: TRUE; Hit (PanDDA run, DMSO background map) ([1]; crystal soak 10 mM): TRUE; 1-BDC (PanDDA run, DMSO background map) ([1]; crystal soak 10 mM, event 1): 0.2 and 0.37 and 0.38; Refined TFA occupancy (%) ([1]; occupancy of TFA in the dataset of the named ligand): 20%
CC(C)(O)C1N(c2ncnc3[nH]ccc23)CCC1(C)C (centres unmarked) [AVI-4126] | 0.16 | – | 2 | – | – | 1.3 | – | – | – | – | – | Adenosine | – | – | – | 1.3 | 8 | 40 | 32 | Phe132 loop open state [1]: TRUE; PanDDA run, DMSO background map: 1-BDC [1, 12]: 0.17 and 0.16; Pandda run, overall: Hit [1, 13]: TRUE; Pandda run, overall: Modeled [1, 13]: TRUE; Pandda run, overall: Modeling comment [1, 13]: Duplicate, not modeled; PanDDA run, DMSO background map: Hit [1, 14]: TRUE; PanDDA run, DMSO background map: Modeled [1, 14]: TRUE
CC(C)(O)C1C2CCCCC2CN1c1ncnc2[nH]ccc12 (centres unmarked) [AVI-4127] | 0.25 | – | 2 | – | – | 1.3 | – | – | – | – | – | Adenosine | – | – | – | 1.3 | 10 | 60 | 50 | Phe132 loop open state [1]: TRUE; PanDDA run, DMSO background map: 1-BDC [1, 12]: 0.23 and 0.25; Pandda run, overall: Hit [1, 13]: TRUE; Pandda run, overall: Modeled [1, 13]: TRUE; Pandda run, overall: Modeling comment [1, 13]: Duplicate, not modeled; PanDDA run, DMSO background map: Hit [1, 14]: TRUE; PanDDA run, DMSO background map: Modeled [1, 14]: TRUE
